Drawing on ChEMBL document CHEMBL3045430, “Natural products-based insecticidal agents 11. Synthesis and insecticidal activity of novel 4α-arylsulfonyloxybenzyloxy-2β-chloropodophyllotoxin derivatives against Mythimna separata Walker in vivo” (2011), this text covers mortality and Activity for 18 compounds.

Structures are written as SMILES. Activity calls are given as the source filed them. No cut-off for these calls is given here.

For test [1], the system named is Mythimna separata. The test is described as follows: In vivo insecticidal activity against pre-third-instar larval stage of Mythimna separata (Oriental armyworm) in corn leaves assessed as corrected mortality rate at 1 mg/ml treated for 3 secs before larval infestation on corn leaves measured after 35 days by leaf-dipping method. Conditions: 840 h. In kind it is functional.

Test [2] concerns Mythimna separata. Description: In vivo insecticidal activity against pre-third-instar larval stage of Mythimna separata (Oriental armyworm) in corn leaves assessed as corrected mortality rate at 1 mg/ml treated for 3 secs before larval infestation on corn leaves measured after 10 days by leaf-dipping method. In kind it is functional. The note with it: 240 h.
The subject of test [3] is Mythimna separata. The test is described as follows: In vivo insecticidal activity against pre-third-instar larval stage of Mythimna separata (Oriental armyworm) in corn leaves assessed as corrected mortality rate at 1 mg/ml treated for 3 secs before larval infestation on corn leaves measured after 20 days by leaf-dipping method. In kind it is functional. Conditions: 480 h.

Test [4] concerns Mythimna separata. The test is described as follows: In vivo insecticidal activity against pre-third-instar larval stage of Mythimna separata (Oriental armyworm) in corn leaves assessed as induction of malformed pupae at 1 mg/ml treated for 3 secs before larval infestation on corn leaves measured after […] by leaf-dipping method. It is filed as functional, organism-based.
Test [5] concerns Mythimna separata. Description: In vivo insecticidal activity against pre-third-instar larval stage of Mythimna separata (Oriental armyworm) in corn leaves assessed as induction of slim and wrinkled larval bodies at 1 mg/ml treated for 3 secs before larval infestation on corn leaves measured after 48 hr by leaf-dipping method. In kind it is functional, organism-based.
The test system of test [6] is Mythimna separata. Description: In vivo insecticidal activity against pre-third-instar larval stage of Mythimna separata (Oriental armyworm) in corn leaves assessed as induction of malformed moth with imperfect wings at 1 mg/ml treated for 3 secs before larval infestation on corn leaves measured after […] by leaf-dipping method. It is filed as functional, organism-based.

`CC(=O)O[C@@H]1C[C@H](O)[C@@]23CO[C@@H](O)[C@]1(C)[C@@H]2C[C@@H](O)[C@]1(C)[C@@H]3C(=O)[C@H](OC(C)=O)[C@@]2(C)[C@H](c3ccoc3)C[C@H]3O[C@]321` [TOOSENDANIN]: the values for the mortality at 1000 µg/mL in the test with Mythimna separata [1], in the test on Mythimna separata [2] and with Mythimna separata [3] were 48%, 17.9% and 34.6%, respectively.
Turning to `COc1cc([C@@H]2c3cc4c(cc3[C@H](OCc3ccc(OS(=O)(=O)c5ccc(C)cc5)cc3)[C@H]3COC(=O)[C@]23Cl)OCO4)cc(OC)c1OC`, the mortality (in general, the percentage killed) at 1000 µg/mL in the test on Mythimna separata [1] was found to be 40%; with Mythimna separata [2] it was 17.9%; in the test with Mythimna separata [3] it was 38.5%. In the test with Mythimna separata [4], the outcome was Active.
For `COc1cc([C@@H]2c3cc4c(cc3[C@H](OCc3ccccc3OS(=O)(=O)c3ccc(Cl)c([N+](=O)[O-])c3)[C@H]3COC(=O)[C@]23Cl)OCO4)cc(OC)c1OC`, the results for the mortality at 1000 µg/mL in the test with Mythimna separata [1], with Mythimna separata [2] and with Mythimna separata [3] were 72%, 25% and 57.7%, respectively. Moreover, the result in the test with Mythimna separata [4] and with Mythimna separata [5] was Active.
Turning to `COc1cc([C@@H]2c3cc4c(cc3[C@H](OCc3ccc(OS(=O)(=O)c5ccc(Cl)cc5)cc3)[C@H]3COC(=O)[C@]23Cl)OCO4)cc(OC)c1OC`, the mortality at 1000 µg/mL was 40% in the test with Mythimna separata [1], 28.6% in the test with Mythimna separata [2] and 38.5% with Mythimna separata [3].
`COc1cc([C@@H]2c3cc4c(cc3[C@H](OCc3ccccc3OS(=O)(=O)c3cccc([N+](=O)[O-])c3)[C@H]3COC(=O)[C@]23Cl)OCO4)cc(OC)c1OC`: the mortality at 1000 µg/mL with Mythimna separata [1] was found to be 36%; with Mythimna separata [2], 10.7%; in the test on Mythimna separata [3], 34.6%. Moreover, the outcome with Mythimna separata [4] and in the test on Mythimna separata [6] was Active.
For the compound `COc1cc([C@@H]2c3cc4c(cc3[C@H](OCc3ccccc3)[C@H]3COC(=O)[C@]23Cl)OCO4)cc(OC)c1OC` [4ALPHA-BENZYLOXY-2-CHLOROPODOPHYLLOTOXIN], the mortality at 1000 µg/mL in the test on Mythimna separata [1] worked out at 52%; in the test on Mythimna separata [2] it was 10.7%; in the test with Mythimna separata [3] it was 19.2%.
Regarding `CCc1ccc(S(=O)(=O)Oc2ccccc2CO[C@H]2c3cc4c(cc3[C@@H](c3cc(OC)c(OC)c(OC)c3)[C@@]3(Cl)C(=O)OC[C@H]23)OCO4)cc1`, the mortality at 1000 µg/mL stood at 68% in the test with Mythimna separata [1], 35.7% in the test with Mythimna separata [2] and 57.7% with Mythimna separata [3]. Also, the outcome in the test with Mythimna separata [5] was Active.
As for `COc1cc([C@@H]2c3cc4c(cc3[C@H](OCc3ccccc3OS(=O)(=O)c3ccc(Cl)cc3)[C@H]3COC(=O)[C@]23Cl)OCO4)cc(OC)c1OC`, the mortality at 1000 µg/mL in the test on Mythimna separata [1] worked out at 48%; in the test with Mythimna separata [2] it was 7.1%; in the test on Mythimna separata [3] it was 34.6%. Moreover, the result in the test with Mythimna separata [6] was Active.
As to `COc1ccc(S(=O)(=O)Oc2ccccc2CO[C@H]2c3cc4c(cc3[C@@H](c3cc(OC)c(OC)c(OC)c3)[C@@]3(Cl)C(=O)OC[C@H]23)OCO4)cc1`, the mortality at 1000 µg/mL is 48% with Mythimna separata [1], 17.9% with Mythimna separata [2] and 34.6% in the test with Mythimna separata [3]. The outcome with Mythimna separata [6] was Active.
Consider `COc1ccc(S(=O)(=O)Oc2ccc(CO[C@H]3c4cc5c(cc4[C@@H](c4cc(OC)c(OC)c(OC)c4)[C@@]4(Cl)C(=O)OC[C@H]34)OCO5)cc2)cc1`, for which the mortality at 1000 µg/mL in the test with Mythimna separata [1] was determined as 48%; with Mythimna separata [2], 21.4%; in the test with Mythimna separata [3] it was 34.6%.
Turning to `COc1cc([C@@H]2c3cc4c(cc3[C@H](OCc3ccc(OS(=O)(=O)c5cccc([N+](=O)[O-])c5)cc3)[C@H]3COC(=O)[C@]23Cl)OCO4)cc(OC)c1OC`, the mortality at 1000 µg/mL with Mythimna separata [1] was determined as 52%; with Mythimna separata [2], 14.3%; in the test on Mythimna separata [3] it was 38.5%. Also, the result in the test on Mythimna separata [4] was Active.
Consider `COc1cc([C@@H]2c3cc4c(cc3[C@H](O)[C@H]3COC(=O)[C@]23Cl)OCO4)cc(OC)c1OC` [2BETA-CHLOROPODOPHYLLOTOXIN], for which the mortality at 1000 µg/mL in the test with Mythimna separata [1] came out at 36%; in the test with Mythimna separata [2], 14.3%; in the test on Mythimna separata [3], 15.4%.
The corresponding values for `COc1cc([C@@H]2c3cc4c(cc3[C@H](OCc3ccc(OS(=O)(=O)c5ccc(Cl)c([N+](=O)[O-])c5)cc3)[C@H]3COC(=O)[C@]23Cl)OCO4)cc(OC)c1OC` are 48%, 17.9% and 26.9%.
As for `COc1cc([C@@H]2c3cc4c(cc3[C@H](O)[C@H]3COC(=O)[C@H]23)OCO4)cc(OC)c1OC` [PODOFILOX], the mortality at 1000 µg/mL with Mythimna separata [1] was found to be 40%; in the test on Mythimna separata [2] it was 17.9%; in the test with Mythimna separata [3], 23.1%.
Consider `COc1cc([C@@H]2c3cc4c(cc3[C@H](OCc3ccccc3OS(=O)(=O)c3ccccc3)[C@H]3COC(=O)[C@]23Cl)OCO4)cc(OC)c1OC`, for which the figures for the mortality at 1000 µg/mL in the test with Mythimna separata [1], in the test on Mythimna separata [2] and with Mythimna separata [3] were 40%, 7.1% and 26.9%, respectively. In addition, the outcome in the test with Mythimna separata [4] and with Mythimna separata [6] was Active.
Turning to `CCc1ccc(S(=O)(=O)Oc2ccc(CO[C@H]3c4cc5c(cc4[C@@H](c4cc(OC)c(OC)c(OC)c4)[C@@]4(Cl)C(=O)OC[C@H]34)OCO5)cc2)cc1`, the values for the mortality at 1000 µg/mL in the test with Mythimna separata [1], with Mythimna separata [2] and in the test on Mythimna separata [3] were 56%, 14.3% and 38.5%, respectively. Also, the result in the test on Mythimna separata [5] was Active.
Turning to `COc1cc([C@@H]2c3cc4c(cc3[C@H](OCc3ccc(OS(=O)(=O)c5ccccc5)cc3)[C@H]3COC(=O)[C@]23Cl)OCO4)cc(OC)c1OC`, the mortality at 1000 µg/mL in the test with Mythimna separata [1] worked out at 36%; in the test on Mythimna separata [2], 14.3%; with Mythimna separata [3] it was 30.8%. The outcome with Mythimna separata [4] was Active.
In the case of `COc1cc([C@@H]2c3cc4c(cc3[C@H](OCc3ccccc3OS(=O)(=O)c3ccc(C)cc3)[C@H]3COC(=O)[C@]23Cl)OCO4)cc(OC)c1OC`, the mortality at 1000 µg/mL in the test on Mythimna separata [1] worked out at 52%; in the test on Mythimna separata [2], 21.4%; in the test with Mythimna separata [3], 34.6%.
